Common to all, as to assay: Glasshouse assay for herbicidal activity (pre- and post-emergence), percentage phytotoxicity
Type in all cases: in vivo

Assay [1] concerns Avena fatua (AVEFA). Particulars: Avena fatua. The protocol:
(§1) Test—Glasshouse Assay for Herbicidal Activity
(§2) Seeds of a variety of monocotyledonous and dicotyledonous test plants are sown in standard soil in pots. The plants are cultivated for one day (for pre-emergence (PRE)) or for about 12 days (for post-emergence (POST)) under controlled conditions in a glasshouse (warm climate species at 24/18° C., cool climate species at 20/16° C., both at day/night; 16 hours light; 65% humidity).
(§3) The test plants are then grown on, in a glasshouse (greenhouse) under controlled conditions (warm climate species at 24/18° C., cool climate species at 20/16° C., both at day/night; 16 hours light; 65% humidity) and are watered twice daily. 15 days after application of the test herbicide (15 DAA) (for post-emergence), and 20 days after application of the test herbicide (20 DAA) (for pre-emergence), the test plants are evaluated visually, and an assessed percentage phytotoxicity score is given for each herbicidal application on each plant species (with 100%=total damage to plant; 0%=no damage to plant).
(§4) The plant species tested are as follows: Alopecurus myosuroides (ALOMY), Avena fatua (AVEFA), Lolium perenne (LOLPE), Echinochloa crus-galli (ECHCG).

The test system of assay [2] is Alopecurus myosuroides (ALOMY). To be noted: Alopecurus myosuroides. The protocol:
as §1, §2, §3, §4

The subject of assay [3] is Echinochloa crus-galli (ECHCG). To be noted: Echinochloa crus-galli. The protocol:
as §1, §2, §3, §4

Assay [4] concerns Lolium perenne (LOLPE). To be noted: Lolium perenne. The protocol: as §1, §2, §3, §4
[5] abbreviates: post-emergence, 360 h, 250 g/ha, post-emergence, 15 DAA, visual assessment (100%=total damage, 0%=no damage), read-out: Post-emergence herbicidal activity (percentage phytotoxicity) AVEFA POST.
Where [6] appears, read: pre-emergence, 480 h, 250 g/ha, pre-emergence, 20 DAA, visual assessment (100%=total damage, 0%=no damage), read-out: Pre-emergence herbicidal activity (percentage phytotoxicity) AVEFA PRE.
Setting [7] is: post-emergence, 360 h, 250 g/ha, post-emergence, 15 DAA, visual assessment (100%=total damage, 0%=no damage), read-out: Post-emergence herbicidal activity (percentage phytotoxicity) ALOMY POST.
Setting [8] is: pre-emergence, 480 h, 250 g/ha, pre-emergence, 20 DAA, visual assessment (100%=total damage, 0%=no damage), read-out: Pre-emergence herbicidal activity (percentage phytotoxicity) ALOMY PRE.
Setting [9] is: post-emergence, 360 h, 250 g/ha, post-emergence, 15 DAA, visual assessment (100%=total damage, 0%=no damage), read-out: Post-emergence herbicidal activity (percentage phytotoxicity) ECHCG POST.
The mark [10] stands for this setting: pre-emergence, 480 h, 250 g/ha, pre-emergence, 20 DAA, visual assessment (100%=total damage, 0%=no damage), read-out: Pre-emergence herbicidal activity (percentage phytotoxicity) ECHCG PRE.
[11] abbreviates: post-emergence, 360 h, 250 g/ha, post-emergence, 15 DAA, visual assessment (100%=total damage, 0%=no damage), read-out: Post-emergence herbicidal activity (percentage phytotoxicity) LOLPE POST.
Setting [12] is: pre-emergence, 480 h, 250 g/ha, pre-emergence, 20 DAA, visual assessment (100%=total damage, 0%=no damage), read-out: Pre-emergence herbicidal activity (percentage phytotoxicity) LOLPE PRE.

Like-named read-outs stand apart in the source and are kept apart here.

As to `Cc1cc(-c2ncc(Cl)cn2)cc(C)c1C1=C(OC(=O)C(C)(C)C)CC(CC(=O)NC(C)(C)C)C1=O` (centres unmarked) [Compound P3], the pest or weed control at 250 g/ha in assay [1] (post-emergence, 360 h, post-emergence, 250 g/ha, 15 DAA, visual score (100%=total damage; 0%=no damage), read-out: AVEFA POST herbicidal activity (percentage phytotoxicity)) came to 90%; in assay [1] (pre-emergence, 480 h, pre-emergence, 250 g/ha, 20 DAA, visual score (100%=total damage; 0%=no damage), read-out: AVEFA PRE herbicidal activity (percentage phytotoxicity)), 80%; in assay [2] (post-emergence, 360 h, post-emergence, 250 g/ha, 15 DAA, visual score (100%=total damage; 0%=no damage), read-out: ALOMY POST herbicidal activity (percentage phytotoxicity)), 100%; in assay [2] (pre-emergence, 480 h, pre-emergence, 250 g/ha, 20 DAA, visual score (100%=total damage; 0%=no damage), read-out: ALOMY PRE herbicidal activity (percentage phytotoxicity)), 100%; in assay [3] (post-emergence, 360 h, post-emergence, 250 g/ha, 15 DAA, visual score (100%=total damage; 0%=no damage), read-out: ECHCG POST herbicidal activity (percentage phytotoxicity)), 100%; in assay [3] (pre-emergence, 480 h, pre-emergence, 250 g/ha, 20 DAA, visual score (100%=total damage; 0%=no damage), read-out: ECHCG PRE herbicidal activity (percentage phytotoxicity)) it was 100%. The pest or weed control at 250 g/ha in assay [4] (post-emergence, 360 h, post-emergence, 250 g/ha, 15 DAA, visual score (100%=total damage; 0%=no damage), read-out: LOLPE POST herbicidal activity (percentage phytotoxicity)) amounted to 100%; in assay [4] (pre-emergence, 480 h, pre-emergence, 250 g/ha, 20 DAA, visual score (100%=total damage; 0%=no damage), read-out: LOLPE PRE herbicidal activity (percentage phytotoxicity)), 100%.

For `Cc1cc(C)c(C2C(=O)CC(CC(=O)Nc3ccc(C#N)cc3)C2=O)c(C)c1` (centres unmarked) [Compound B1], the pest or weed control at 250 g/ha in assay [1] (setting [5]) worked out at 0%; in assay [1] (setting [6]) it was 0%; in assay [2] (setting [7]), 0%; in assay [2] (setting [8]) it was 20%; in assay [3] (setting [9]) it was 60%; in assay [3] (setting [10]), 70%. For the same compound, the pest or weed control at 250 g/ha in assay [4] (setting [11]) and in assay [4] (setting [12]) was 20% each time.

Take `Cc1cc(C)c(C2C(=O)CC(CC(=O)NCc3cccc(F)c3)C2=O)c(C)c1` (centres unmarked) [Compound B21]: the pest or weed control at 250 g/ha in assay [1] (setting [5]) was 90%; in assay [1] (setting [6]), 50%; in assay [2] (setting [7]), 80%; in assay [2] (setting [8]) it was 80%; in assay [3] (setting [9]) it was 90%; in assay [3] (setting [10]) it was 100%. Also, the pest or weed control at 250 g/ha was 90% in assay [4] (setting [11]) and 100% in assay [4] (setting [12]).

For the compound `CCc1cccc(C)c1C1C(=O)CC(CC(=O)NC(C)(C)C)C1=O` (centres unmarked) [Compound B149], the pest or weed control at 250 g/ha came to 90% in assay [1] (setting [5]); 80% in assay [1] (setting [6]); 90% in assay [2] (setting [7]); 90% in assay [2] (setting [8]); 90% in assay [3] (setting [9]); 100% in assay [3] (setting [10]). The pest or weed control at 250 g/ha in assay [4] (setting [11]) worked out at 80%; in assay [4] (setting [12]), 90%.

As to `COCC(C)(C)NC(=O)CC1CC(=O)C(c2c(C)cc(-c3ncc(Cl)cn3)cc2C)C1=O` (centres unmarked) [Compound B344], the pest or weed control at 250 g/ha in assay [1] (post-emergence, 360 h, Rate 250 g/ha, post-emergence, visual assessment 15 DAA, 100%=total damage, 0%=no damage, read-out: Post-emergence herbicidal activity (percentage phytotoxicity) AVEFA POST) is 100%; in assay [1] (pre-emergence, 480 h, Rate 250 g/ha, pre-emergence, visual assessment 20 DAA, 100%=total damage, 0%=no damage, read-out: Pre-emergence herbicidal activity (percentage phytotoxicity) AVEFA PRE), 80%; in assay [2] (post-emergence, 360 h, Rate 250 g/ha, post-emergence, visual assessment 15 DAA, 100%=total damage, 0%=no damage, read-out: Post-emergence herbicidal activity (percentage phytotoxicity) ALOMY POST), 100%; in assay [2] (pre-emergence, 480 h, Rate 250 g/ha, pre-emergence, visual assessment 20 DAA, 100%=total damage, 0%=no damage, read-out: Pre-emergence herbicidal activity (percentage phytotoxicity) ALOMY PRE) it was 90%; in assay [3] (post-emergence, 360 h, Rate 250 g/ha, post-emergence, visual assessment 15 DAA, 100%=total damage, 0%=no damage, read-out: Post-emergence herbicidal activity (percentage phytotoxicity) ECHCG POST), 100%; in assay [3] (pre-emergence, 480 h, Rate 250 g/ha, pre-emergence, visual assessment 20 DAA, 100%=total damage, 0%=no damage, read-out: Pre-emergence herbicidal activity (percentage phytotoxicity) ECHCG PRE), 100%. Besides, the pest or weed control at 250 g/ha in assay [4] (post-emergence, 360 h, Rate 250 g/ha, post-emergence, visual assessment 15 DAA, 100%=total damage, 0%=no damage, read-out: Post-emergence herbicidal activity (percentage phytotoxicity) LOLPE POST) is 90%; in assay [4] (pre-emergence, 480 h, Rate 250 g/ha, pre-emergence, visual assessment 20 DAA, 100%=total damage, 0%=no damage, read-out: Pre-emergence herbicidal activity (percentage phytotoxicity) LOLPE PRE) it was 80%.

Consider `CCc1cc(OCC(F)(F)F)cc(C)c1C1C(=O)CC(CC(=O)NCc2ccc(OC)cc2)C1=O` (centres unmarked) [Compound B215], for which the pest or weed control at 250 g/ha came out at 100% in assay [1] (post-emergence, 360 h, POST-emergence, rate 250 g/ha, visual score 15 DAA (100%=total damage, 0%=no damage), read-out: Post-emergence herbicidal activity (percentage phytotoxicity) AVEFA POST); 80% in assay [1] (pre-emergence, 480 h, PRE-emergence, rate 250 g/ha, visual score 20 DAA (100%=total damage, 0%=no damage), read-out: Pre-emergence herbicidal activity (percentage phytotoxicity) AVEFA PRE); 100% in assay [2] (post-emergence, 360 h, POST-emergence, rate 250 g/ha, visual score 15 DAA (100%=total damage, 0%=no damage), read-out: Post-emergence herbicidal activity (percentage phytotoxicity) ALOMY POST); 90% in assay [2] (pre-emergence, 480 h, PRE-emergence, rate 250 g/ha, visual score 20 DAA (100%=total damage, 0%=no damage), read-out: Pre-emergence herbicidal activity (percentage phytotoxicity) ALOMY PRE); 100% in assay [3] (post-emergence, 360 h, POST-emergence, rate 250 g/ha, visual score 15 DAA (100%=total damage, 0%=no damage), read-out: Post-emergence herbicidal activity (percentage phytotoxicity) ECHCG POST); 90% in assay [3] (pre-emergence, 480 h, PRE-emergence, rate 250 g/ha, visual score 20 DAA (100%=total damage, 0%=no damage), read-out: Pre-emergence herbicidal activity (percentage phytotoxicity) ECHCG PRE). Further, the pest or weed control at 250 g/ha in assay [4] (post-emergence, 360 h, POST-emergence, rate 250 g/ha, visual score 15 DAA (100%=total damage, 0%=no damage), read-out: Post-emergence herbicidal activity (percentage phytotoxicity) LOLPE POST) was 100%; in assay [4] (pre-emergence, 480 h, PRE-emergence, rate 250 g/ha, visual score 20 DAA (100%=total damage, 0%=no damage), read-out: Pre-emergence herbicidal activity (percentage phytotoxicity) LOLPE PRE) it was 90%.

Take `C/C=C/c1cc(C)c(C2C(=O)CC(CC(=O)NC(C)(C)C)C2=O)c(CC)c1` (centres unmarked) [Compound B136]: the pest or weed control at 16 g/ha worked out at 100% in assay [1] (post-emergence, 360 h, post-emergence, 15 DAA, read-out: Post-emergence herbicidal activity (percentage phytotoxicity) AVEFA POST); 100% in assay [1] (pre-emergence, 480 h, pre-emergence, 20 DAA, read-out: Pre-emergence herbicidal activity (percentage phytotoxicity) AVEFA PRE); 60% in assay [2] (post-emergence, 360 h, post-emergence, 15 DAA, read-out: Post-emergence herbicidal activity (percentage phytotoxicity) ALOMY POST); 90% in assay [2] (pre-emergence, 480 h, pre-emergence, 20 DAA, read-out: Pre-emergence herbicidal activity (percentage phytotoxicity) ALOMY PRE); 90% in assay [3] (post-emergence, 360 h, post-emergence, 15 DAA, read-out: Post-emergence herbicidal activity (percentage phytotoxicity) ECHCG POST); 100% in assay [3] (pre-emergence, 480 h, pre-emergence, 20 DAA, read-out: Pre-emergence herbicidal activity (percentage phytotoxicity) ECHCG PRE). For the same compound, the pest or weed control at 16 g/ha in assay [4] (post-emergence, 360 h, post-emergence, 15 DAA, read-out: Post-emergence herbicidal activity (percentage phytotoxicity) LOLPE POST) amounted to 100%; in assay [4] (pre-emergence, 480 h, pre-emergence, 20 DAA, read-out: Pre-emergence herbicidal activity (percentage phytotoxicity) LOLPE PRE) it was 90%.

These data come from patent US10206394B2, “Herbicidal compounds” (Syngenta Participations AG, priority 2014, dated 2019).
